# Source: patent publication US20210145764A1, “COMPOSITIONS OF CANNABIDIOL (CBD), AND/OR POLYPHENOLS, AND METHODS FOR THE PREVENTION AND/OR TREATMENT OF SKIN, MUSCLE, NERVE AND INFLAMMATORY DISORDERS, AND BIOLOGICAL FACTORS AND FUNCTIONS IN MAMMALS” (BRIGHAM YOUNG UNIVERSITY, priority 2019, published 2021)
# pIC50, pKi: −log10 of the molar value.
# Columns and labels:
# [1] = molecular target: Estrogen Receptor Alpha (α) (Homo sapiens, UniProt P03372); conditions: cited from earlier work; for pKi: read-out: Binds Estrogen Receptor Alpha (α), Ki
# [2] = molecular target: Estrogen Receptor Beta (β) (Homo sapiens, UniProt Q92731); conditions: cited from earlier work; for pKi: read-out: Binds Estrogen Receptor Beta (β), Ki
# [3] = test system: Elastase; conditions: cited from earlier work
# [4] = test system: Inflammatory Molecules; conditions: cited from earlier work
# [5] = test system: MMPs; conditions: cited from earlier work
# [6] = test system: Collagen; conditions: cited from earlier work
# [7] = test system: NFkappB; conditions: cited from earlier work
# [8] = test system: AP-1; conditions: same concentrations; cited from earlier work
# [9] = test system: TIMP1; conditions: cited from earlier work
# [10] = cited from earlier work
# [11] = test system: Elastin; conditions: cited from earlier work
# [12] = molecular target: T1, 5α-Reductase Enzyme (type 1 in skin) (Homo sapiens, UniProt P18405); conditions: cited from earlier work
# T1 sequence (P18405 1-259): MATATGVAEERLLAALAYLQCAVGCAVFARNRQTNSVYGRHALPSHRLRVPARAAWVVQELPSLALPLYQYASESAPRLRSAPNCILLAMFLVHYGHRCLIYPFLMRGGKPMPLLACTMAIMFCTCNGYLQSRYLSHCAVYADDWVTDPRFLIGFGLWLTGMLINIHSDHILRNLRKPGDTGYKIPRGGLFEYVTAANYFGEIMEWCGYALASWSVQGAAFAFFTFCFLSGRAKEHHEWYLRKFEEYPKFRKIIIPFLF
# [13] = test system: Growth Factors; conditions: cited from earlier work
# [14] = molecular target: T2, Nrf2 (Homo sapiens, UniProt Q16236); conditions: cited from earlier work
# T2 sequence (Q16236 1-605): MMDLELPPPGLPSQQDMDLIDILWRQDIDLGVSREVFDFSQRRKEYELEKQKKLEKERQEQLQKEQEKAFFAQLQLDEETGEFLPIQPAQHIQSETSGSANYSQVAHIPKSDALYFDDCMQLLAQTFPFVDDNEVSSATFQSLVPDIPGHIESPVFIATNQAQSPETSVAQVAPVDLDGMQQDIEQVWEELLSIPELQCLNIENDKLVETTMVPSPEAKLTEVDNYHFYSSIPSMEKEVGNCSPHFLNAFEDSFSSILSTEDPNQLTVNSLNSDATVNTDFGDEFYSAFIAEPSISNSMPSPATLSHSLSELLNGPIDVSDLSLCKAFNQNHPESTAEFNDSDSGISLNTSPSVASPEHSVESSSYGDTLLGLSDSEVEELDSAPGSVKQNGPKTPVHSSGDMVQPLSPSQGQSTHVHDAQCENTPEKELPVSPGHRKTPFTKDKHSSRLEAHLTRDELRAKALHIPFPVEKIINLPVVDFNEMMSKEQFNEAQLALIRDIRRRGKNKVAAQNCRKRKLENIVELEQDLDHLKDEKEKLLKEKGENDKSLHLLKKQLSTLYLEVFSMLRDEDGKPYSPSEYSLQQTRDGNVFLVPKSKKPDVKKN
# [15] = molecular target: T3, Estrogen Related Receptor gamma (γ) (Homo sapiens, UniProt P62508); conditions: cited from earlier work
# T3 sequence (P62508 1-458): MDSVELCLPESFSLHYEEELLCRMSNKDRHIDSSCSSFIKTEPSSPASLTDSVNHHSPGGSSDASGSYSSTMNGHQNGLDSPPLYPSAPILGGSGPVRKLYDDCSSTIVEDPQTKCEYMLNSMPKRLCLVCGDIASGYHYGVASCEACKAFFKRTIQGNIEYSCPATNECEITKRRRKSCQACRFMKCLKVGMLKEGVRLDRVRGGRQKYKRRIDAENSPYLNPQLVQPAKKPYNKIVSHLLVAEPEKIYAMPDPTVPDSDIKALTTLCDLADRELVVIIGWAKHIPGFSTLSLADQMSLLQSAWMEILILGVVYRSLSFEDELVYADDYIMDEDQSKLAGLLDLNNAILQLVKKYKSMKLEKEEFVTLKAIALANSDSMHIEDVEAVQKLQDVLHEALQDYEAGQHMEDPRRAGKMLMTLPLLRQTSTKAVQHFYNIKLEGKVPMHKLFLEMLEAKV
# [16] = test system: full thickness epidermal/dermal human skin cultures; assay: MTT assay cell viability, full thickness skin cultures; assay type: cell-based
# Text: Testing CBD and equol at various concentration to determine tissue/cell viability as indicated on the y- and x-axis and figure labels for subsequent human skin gene analysis. Triton X-100 treatment (cytotoxic control). Note: The MTT assay is a colorimetric assay, which has been validated for measuring cell metabolic activity. It is based on the ability of nicotinamide adenine dinucleotide phosphate (NADPH)-dependent cellular oxidoreductase enzymes to reduce the tetrazolium dye MTT to its insoluble formazan, which has a purple color. The absorbance of this colored solution can be quantified by measuring at a certain wavelength (usually between 500 and 600 nm) by a spectrophotometer. The MTT method is one of the most widely used methods to analyze cell proliferation and viability in human skin cells (Triglia et al., 1991).
# [17] = test system: dermal layer (only) of the human skin cultures; assay: MTT assay viability, dermal layer (only); assay type: cell-based
# Text: Testing CBD and equol at various concentration to determine tissue/cell viability as indicated on the y- and x-axis and figure labels for subsequent human skin gene analysis. Triton X-100 treatment (cytotoxic control).
# [18] = test system: full epidermal/dermal thickness human skin cultures; assay: Histology (hematoxylin/eosin) of human skin cultures; assay type: cell-based; conditions: 0.3% CBD; 0.5% equol; combination; 40× magnification
# Description: FIG. 14 depicts photomicrographs (40× magnification) of full epidermal/dermal thickness human skin cultures. […] Standard bar=50 microns.
# In human skin gene expression analysis full epidermal/dermal thickness human skin cultures were used.
# The skin cultures were treated with: (a) transcutol vehicle; (b) 0.3% CBD; and (c) 0.5% equol and 0.3% CDB plus 0.5% equol.
# [19] = in vivo; cited from earlier work
# [20] = single topical dose, human skin; cited from earlier work
# [21] = cited from earlier work; remark: listed apart in the source
# [22] = test system: human skin biomarkers; conditions: cited from earlier work
# [23] = 12 weeks; Equol alone at 0.3%; cited from earlier work
# [24] = drug delivery studies; cited from earlier work
# [25] = cited from earlier work; remark: listed apart in the source
# Sequence of Estrogen Receptor Beta (β) (Q92731 whole entry, species assumed): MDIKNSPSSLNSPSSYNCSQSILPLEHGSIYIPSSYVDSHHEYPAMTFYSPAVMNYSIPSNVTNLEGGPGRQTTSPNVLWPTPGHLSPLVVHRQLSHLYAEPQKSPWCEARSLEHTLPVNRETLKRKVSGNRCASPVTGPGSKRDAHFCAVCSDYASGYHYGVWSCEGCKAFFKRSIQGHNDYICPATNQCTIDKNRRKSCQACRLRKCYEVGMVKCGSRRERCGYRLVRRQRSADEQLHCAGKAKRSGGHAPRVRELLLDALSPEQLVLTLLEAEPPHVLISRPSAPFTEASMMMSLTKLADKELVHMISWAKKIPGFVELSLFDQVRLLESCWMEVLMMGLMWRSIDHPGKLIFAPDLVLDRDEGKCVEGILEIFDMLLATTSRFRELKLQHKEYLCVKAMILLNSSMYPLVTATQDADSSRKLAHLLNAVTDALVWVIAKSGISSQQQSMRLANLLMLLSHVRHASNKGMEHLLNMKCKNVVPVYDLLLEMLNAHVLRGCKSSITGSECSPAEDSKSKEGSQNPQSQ
# Sequence of Estrogen Receptor Alpha (α) (P03372 whole entry): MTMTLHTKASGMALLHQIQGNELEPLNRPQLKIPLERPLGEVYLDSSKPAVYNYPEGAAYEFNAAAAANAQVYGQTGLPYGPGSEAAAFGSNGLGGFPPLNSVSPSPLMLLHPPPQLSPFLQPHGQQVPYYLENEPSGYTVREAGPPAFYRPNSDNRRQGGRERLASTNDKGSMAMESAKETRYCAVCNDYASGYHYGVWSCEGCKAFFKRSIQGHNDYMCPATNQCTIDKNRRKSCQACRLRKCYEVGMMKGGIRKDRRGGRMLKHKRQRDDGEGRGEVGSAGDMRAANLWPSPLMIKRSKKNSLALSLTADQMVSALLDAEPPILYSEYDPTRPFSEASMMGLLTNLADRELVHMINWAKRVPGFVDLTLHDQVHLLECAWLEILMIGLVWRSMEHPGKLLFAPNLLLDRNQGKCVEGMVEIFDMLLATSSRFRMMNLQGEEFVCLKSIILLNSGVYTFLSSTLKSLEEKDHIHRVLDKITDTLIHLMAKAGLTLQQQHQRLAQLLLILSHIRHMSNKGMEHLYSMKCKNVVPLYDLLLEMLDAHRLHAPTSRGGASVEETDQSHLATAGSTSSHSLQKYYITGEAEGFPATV
smiles,measurement,setting,value
"Oc1ccc(C2COc3cc(O)ccc3C2)cc1 (racemic) [Racemic Equol, equol]",pIC50,"[1]; read-out: Binds Estrogen Receptor Alpha (α), IC50",5.82
same,pIC50,"[2]; read-out: Binds Estrogen Receptor Beta (β), IC50",6.70
same,Inhibits Elastase,[3],Yes
same,Inhibits Inflammatory Molecules,[4],"Yes, high inhibition"
same,Inhibits MMPs,[5],"Yes, to moderate"
same,Stimulates Collagen,[6],Yes
same,Inhibits NFkappB,[7],"Yes, high inhibition"
same,TPA-induced activation of AP-1,[8],dose-dependently attenuated
same,Stimulates TIMPI,[9],Yes
same,Oral Metabolism in Humans (pharmacokinetics compared to each other),[10],Similar
same,Stimulates Elastin,[11],Yes
same,Inhibits 5α-Reductase Enzyme (type 1 in skin),[12],Yes
same,Stimulates Growth Factors,[13],"Yes, to moderate"
same,Binds Nrf2/activates other antioxidants,[14],Yes
same,Binds/Activates Estrogen Related Receptor gamma (γ),[15],Yes
"C=C(C)[C@@H]1CCC(C)=C[C@H]1c1c(O)cc(CCCCC)cc1O [CBD, cannabidiol]","relative percent cell viability, full thickness cultures (MTT)",[16]; FIG. 15,around 100%
same,"relative percent cell viability, dermal layer only (MTT)",[17]; FIG. 16,around 100%
same,epidermal and dermal components and epidermal/dermal borders (histology),[18],intact and healthy
O=c1c(-c2ccc(O)cc2)coc2cc(O)cc(O)c12 [genistein],intestinal absorption levels,[19],15-20%
"Oc1ccc([C@H]2COc3cc(O)ccc3C2)cc1 (racemic) [Equol, equol]","skin penetration profile, peak time",[20],around 8 hours
same,sustained release after the initial application,[20],up to 28 hours
same,circulates in the free or unbound form in plasma,[21],approximately 50%
same,"relative percent cell viability, full thickness cultures (MTT)",[16]; human,around 100%
same,"relative percent cell viability, dermal layer only (MTT)",[17]; human,around 100%
same,epidermal and dermal components and epidermal/dermal borders (histology),[18],intact and healthy
same,number of human skin biomarkers/genes significantly altered,[22],39
same,"Even Skin Tone, Self-Assessment Questionnaire efficacy",[23],70%
same,"Frown Lines/Wrinkles, Self-Assessment Questionnaire efficacy",[23],72%
same,"Hydration, Self-Assessment Questionnaire efficacy",[23],71%
same,"Pore Size, Self-Assessment Questionnaire efficacy",[23],51%
same,"Radiance/Brightness, Self-Assessment Questionnaire efficacy",[23],73%
same,"Skin Firmness, Self-Assessment Questionnaire efficacy",[23],77%
same,"Smoothness, Self-Assessment Questionnaire efficacy",[23],62%
same,"Spots/Discoloration, Self-Assessment Questionnaire efficacy",[23],55%
same,transcriptional activity of ERR γ,[15],enhanced
"Oc1ccc([C@@H]2COc3cc(O)ccc3C2)cc1 [R-Equol, R-equol]",affinity for ER alpha,[1],weak affinity
same,pKi,[1],7.56
same,"more stable isomer, R-equol vs. S-equol",[24],more stable isomer
same,affinity for ERβ,[2],weak affinity
same,pKi,[2],7.81
same,Inhibits Inflammatory Molecules,[4],"Yes, high inhibition"
same,Stimulates Collagen,[6],Yes
same,Stimulates TIMPI,[9],"No, or at very low"
same,Oral Metabolism in Humans (pharmacokinetics compared to each other),[10],Similar
same,Stimulates Elastin,[11],Yes
same,Inhibits 5α-Reductase Enzyme (type 1 in skin),[12],Yes
same,Stimulates Growth Factors,[13],"Yes, to high levels"
"O=c1c(-c2ccc(O)cc2)coc2cc(O)ccc12 [daidzein, reference compound]",intestinal absorption levels,[19],30-40%
same,TPA-induced activation of AP-1,[8],did not exert any effect
same,transcriptional activity of ERR γ,[15],did not have this effect
"CCCCCc1cc(O)c2c(c1)OC(C)(C)[C@@H]1CCC(C)=C[C@@H]21 [THC, tetrahydrocannabinol]",solubility in most organic solvents,"[25]; organic solvents, particularly lipids and alcohols",good solubility
same,solubility in water,[25]; water,low solubility
"CC1=C(/C=C/C(C)=C/C=C/C(C)=C/C=C/C=C(C)/C=C/C=C(C)/C=C/C2=C(C)C(=O)[C@@H](O)CC2(C)C)C(C)(C)C[C@H](O)C1=O [astaxanthin, reference compound]",number of human skin biomarkers/genes significantly altered,[22],6
"Oc1ccc([C@H]2COc3cc(O)ccc3C2)cc1 [S-Equol, S-equol]",affinity for ER alpha,[1],low affinity
same,pKi,[1],7.81
same,binding to estrogen receptor beta relative to 17β-estradiol,[2]; as well as 17β-estradiol,approximately ⅕
same,pKi,[2],8.19
same,Inhibits Inflammatory Molecules,[4],"Yes, low inhibition"
same,Inhibits MMPs,[5],"Yes, to low levels of"
same,Stimulates Collagen,[6],Yes
same,Stimulates TIMPI,[9],Yes
same,Oral Metabolism in Humans (pharmacokinetics compared to each other),[10],Similar
same,Stimulates Elastin,[11],No
same,Inhibits 5α-Reductase Enzyme (type 1 in skin),[12],No
same,Stimulates Growth Factors,[13],"Yes, to low levels"
